Data as given in ChEMBL document CHEMBL5380831, “Azolylpyrimidinediols as Novel Structural Scaffolds of DNA-Groove Binders against Intractable Acinetobacter baumannii” (J Med Chem, 2023).
Converted amounts (≈) assume the structure as drawn.

Assays:
Format in all cases: functional
[1] = test system: Staphylococcus aureus; experiment: Antibacterial activity against Staphylococcus aureus assessed as bacterial growth inhibition incubated for 24 hrs by broth microdilution method
[2] = test system: Staphylococcus aureus; experiment: Antibacterial activity against methicillin-resistant Staphylococcus aureus assessed as bacterial growth inhibition incubated for 24 hrs by broth microdilution method
[3] = test system: Enterococcus faecalis; experiment: Antibacterial activity against Enterococcus faecalis assessed as bacterial growth inhibition incubated for 24 hrs by broth microdilution method
[4] = test system: Staphylococcus aureus; experiment: Antibacterial activity against Staphylococcus aureus ATCC 25923 assessed as bacterial growth inhibition incubated for 24 hrs by broth microdilution method
[5] = test system: Staphylococcus aureus; experiment: Antibacterial activity against Staphylococcus aureus ATCC 29213 assessed as bacterial growth inhibition incubated for 24 hrs by broth microdilution method
[6] = test system: Klebsiella pneumoniae; experiment: Antibacterial activity against Klebsiella pneumoniae assessed as bacterial growth inhibition incubated for 24 hrs by broth microdilution method
[7] = test system: Escherichia coli; experiment: Antibacterial activity against Escherichia coli assessed as bacterial growth inhibition incubated for 24 hrs by broth microdilution method
[8] = test system: Escherichia coli; experiment: Antibacterial activity against Escherichia coli ATCC 25922 assessed as bacterial growth inhibition incubated for 24 hrs by broth microdilution method
[9] = test system: Pseudomonas aeruginosa; experiment: Antibacterial activity against Pseudomonas aeruginosa assessed as bacterial growth inhibition incubated for 24 hrs by broth microdilution method
[10] = test system: Pseudomonas aeruginosa; experiment: Antibacterial activity against Pseudomonas aeruginosa ATCC 27853 assessed as bacterial growth inhibition incubated for 24 hrs by broth microdilution method
[11] = test system: Acinetobacter baumannii; experiment: Antibacterial activity against Acinetobacter baumannii assessed as bacterial growth inhibition incubated for 24 hrs by broth microdilution method
[12] = test system: Acinetobacter baumannii; experiment: Induction of drug resistance against Acinetobacter baumannii assessed as fold increase in MIC after 20 passages measured for 20 days by sequential passaging method; details: time 20.0 day

Structure (SMILES) | MIC [1] [µM] | MIC [2] [µM] | MIC [3] [µM] | MIC [4] [µM] | MIC [5] [µM] | MIC [6] [µM] | MIC [7] [µM] | MIC [8] [µM] | MIC [9] [µM] | MIC [10] [µM] | MIC [11] [µM] | fold change (FC) [12]
CCn1cc(C(=O)O)c(=O)c2cc(F)c(N3CCNCC3)cc21 [NORFLOXACIN] | 3 (≈ 0.958 µg/mL) | 50 (≈ 16 µg/mL) | 100 (≈ 31.9 µg/mL) | 2 (≈ 0.639 µg/mL) | 6 (≈ 1.92 µg/mL) | 6 (≈ 1.92 µg/mL) | 25 (≈ 7.98 µg/mL) | 3 (≈ 0.958 µg/mL) | 1 (≈ 0.319 µg/mL) | 3 (≈ 0.958 µg/mL) | 6 (≈ 1.92 µg/mL) | 31
CCN(CC)c1nccc(-n2cncn2)n1 | 1170 (≈ 256 µg/mL) | 1170 (≈ 256 µg/mL) | 587 (≈ 128 µg/mL) | 587 (≈ 128 µg/mL) | 587 (≈ 128 µg/mL) | 1170 (≈ 256 µg/mL) | 587 (≈ 128 µg/mL) | 587 (≈ 128 µg/mL) | 1170 (≈ 256 µg/mL) | 587 (≈ 128 µg/mL) | 1170 (≈ 256 µg/mL) | 
CC(C)c1nccn1-c1nccc(N(CCO)CCO)n1 | 879 (≈ 256 µg/mL) | 1760 (≈ 512 µg/mL) | 1790 (≈ 521 µg/mL) | 440 (≈ 128 µg/mL) | 879 (≈ 256 µg/mL) | 879 (≈ 256 µg/mL) | 879 (≈ 256 µg/mL) | 1760 (≈ 512 µg/mL) | 440 (≈ 128 µg/mL) | 879 (≈ 256 µg/mL) | 440 (≈ 128 µg/mL) | 
CO/N=C(/C(=O)N1CCN(c2nccc(-n3cncn3)n2)CC1)c1csc(N)n1 | 294 (≈ 122 µg/mL) | 294 (≈ 122 µg/mL) | 294 (≈ 122 µg/mL) | 587 (≈ 243 µg/mL) | 587 (≈ 243 µg/mL) | 147 (≈ 60.9 µg/mL) | 294 (≈ 122 µg/mL) | 147 (≈ 60.9 µg/mL) | 587 (≈ 243 µg/mL) | 294 (≈ 122 µg/mL) | 294 (≈ 122 µg/mL) | 
O=C(c1ccccc1)N1CCN(c2nccc(-n3cncn3)n2)CC1 | 764 (≈ 256 µg/mL) | 764 (≈ 256 µg/mL) | 764 (≈ 256 µg/mL) | 764 (≈ 256 µg/mL) | 764 (≈ 256 µg/mL) | 6 (≈ 2.01 µg/mL) | 764 (≈ 256 µg/mL) | 6 (≈ 2.01 µg/mL) | 382 (≈ 128 µg/mL) | 764 (≈ 256 µg/mL) | 764 (≈ 256 µg/mL) | 
Clc1ccc2c3ccccc3n(-c3nccc(-n4cncn4)n3)c2c1 | 740 (≈ 257 µg/mL) | 740 (≈ 257 µg/mL) | 185 (≈ 64.2 µg/mL) | 740 (≈ 257 µg/mL) | 740 (≈ 257 µg/mL) | 740 (≈ 257 µg/mL) | 740 (≈ 257 µg/mL) | 740 (≈ 257 µg/mL) | 3 (≈ 1.04 µg/mL) | 740 (≈ 257 µg/mL) | 740 (≈ 257 µg/mL) | 
Cc1cn(-c2ccnc(N(CCO)CCO)n2)c(C)n1 | 924 (≈ 256 µg/mL) | 924 (≈ 256 µg/mL) | 924 (≈ 256 µg/mL) | 924 (≈ 256 µg/mL) | 924 (≈ 256 µg/mL) | 934 (≈ 259 µg/mL) | 924 (≈ 256 µg/mL) | 924 (≈ 256 µg/mL) | 924 (≈ 256 µg/mL) | 924 (≈ 256 µg/mL) | 462 (≈ 128 µg/mL) | 
O=C1c2cccc3c(N4CCN(c5nccc(-n6cncn6)n5)CC4)ccc(c23)C(=O)N1CCO | 545 (≈ 256 µg/mL) | 545 (≈ 256 µg/mL) | 545 (≈ 256 µg/mL) | 68 (≈ 32 µg/mL) | 9 (≈ 4.23 µg/mL) | 545 (≈ 256 µg/mL) | 545 (≈ 256 µg/mL) | 545 (≈ 256 µg/mL) | 545 (≈ 256 µg/mL) | 545 (≈ 256 µg/mL) | 272 (≈ 128 µg/mL) | 
CC(=O)N1CCN(c2nccc(-n3cncn3)n2)CC1 | 937 (≈ 256 µg/mL) | 469 (≈ 128 µg/mL) | 937 (≈ 256 µg/mL) | 937 (≈ 256 µg/mL) | 937 (≈ 256 µg/mL) | 4 (≈ 1.09 µg/mL) | 937 (≈ 256 µg/mL) | 4 (≈ 1.09 µg/mL) | 469 (≈ 128 µg/mL) | 937 (≈ 256 µg/mL) | 937 (≈ 256 µg/mL) | 
Cc1cn(-c2ccnc(N(CCO)CCO)n2)cn1 | 973 (≈ 256 µg/mL) | 973 (≈ 256 µg/mL) | 973 (≈ 256 µg/mL) | 973 (≈ 256 µg/mL) | 973 (≈ 256 µg/mL) | 973 (≈ 256 µg/mL) | 973 (≈ 256 µg/mL) | 1950 (≈ 512 µg/mL) | 973 (≈ 256 µg/mL) | 973 (≈ 256 µg/mL) | 973 (≈ 256 µg/mL) | 
OCCN(CCO)c1nccc(-n2cnc3cc(Br)ccc32)n1 | 1360 (≈ 514 µg/mL) | 339 (≈ 128 µg/mL) | 679 (≈ 257 µg/mL) | 339 (≈ 128 µg/mL) | 85 (≈ 32.1 µg/mL) | 170 (≈ 64.3 µg/mL) | 1360 (≈ 514 µg/mL) | 1360 (≈ 514 µg/mL) | 339 (≈ 128 µg/mL) | 85 (≈ 32.1 µg/mL) | 170 (≈ 64.3 µg/mL) | 
Cc1ncc([N+](=O)[O-])n1-c1nccc(N(CCO)CCO)n1 | 831 (≈ 256 µg/mL) | 831 (≈ 256 µg/mL) | 831 (≈ 256 µg/mL) | 831 (≈ 256 µg/mL) | 831 (≈ 256 µg/mL) | 415 (≈ 128 µg/mL) | 415 (≈ 128 µg/mL) | 1660 (≈ 512 µg/mL) | 415 (≈ 128 µg/mL) | 415 (≈ 128 µg/mL) | 415 (≈ 128 µg/mL) | 
